The test relates to HL-60. Briefly: Cytotoxicity against human HL60 cells. Type of test: functional, cell-based.

Here are results for two compounds from ChEMBL document CHEMBL1687871, “Phragmalin- and mexicanolide-type limonoids from the leaves of Trichilia connaroides” (J Nat Prod, 2011).

pIC50: −log10 of the molar value.

For `C/C=C(\C)C(=O)O[C@H]1[C@@]2(C)C[C@@]3(OC(C)=O)[C@](C)([C@H]4CC[C@]5(C)C(=C4[C@H](OC(C)=O)[C@@]13OC(C)=O)[C@@H](OC(C)=O)C(=O)O[C@H]5c1ccoc1)[C@H]2CC(=O)OC` [15-ACETYLTRICHAGMALIN E], the pIC50 was 4.68.

In turn, `C/C=C(\C)C(=O)O[C@H]1[C@@]2(C)C[C@@]3(O)[C@](C)([C@H]4CC[C@]5(C)C(=C4[C@H](OC(C)=O)[C@@]13O)[C@@H](OC(C)=O)C(=O)O[C@H]5c1ccoc1)[C@H]2CC(=O)OC` [TRICHAGMALIN D] gave a pIC50 of 4.77.

In general, pIC50 refers to the IC50 on a negative log10 scale, so that one unit is a factor of ten. Read a low pIC50 as a large IC50.
